Measurements taken from paper PMC9218685, “Legume Plant Peptides as Sources of Novel Antimicrobial Molecules Against Human Pathogens” (Frontiers in Molecular Biosciences, 2022).
In brackets after ≈: the same amount, converted by molar mass. Entries after “also recorded” stand apart in the source; their conditions may differ. Like-named read-outs stand apart in the source and are kept apart here. Peptide text beside a SMILES is read from it.

What was measured:
Format in all cases: cell-based
[1] = system: Acinetobacter baumannii (ATCC 17978); test: microbe, parasite or virus in culture; settings: for MBC: pH 7.4, read-out: MBC, minimal bactericidal concentration against A. baumannii
Excerpt: (§1) The following pathogenic bacterial strains were used: The Gram-positive Enterococcus faecalis (ATCC 29212), Staphylococcus aureus (HNCMO112011), Listeria monocytogenes (ATCC 19111) and the Gram-negative Pseudomonas aeruginosa (ATCC 27853), Escherichia coli (ATCC 8739), Salmonella enterica (ATCC 13076), Klebsiella pneumoniae (NCTC 13440), Acinetobacter baumannii (ATCC 17978) obtained from the ATCC (United States) and NCTC (National Collection of Type Cultures–England). For the antifungal experiment the Candida albicans W01 strain ([Ördögh et al., 2014]) was used. Antimicrobial activities of peptides against ∼10^7 log phase bacteria were tested in Potassium-Phosphate Buffer (PPB, pH 7.4) as described by [Jenei et al. (2020)] while anti-Candida assays were done according to [Szerencsés et al. (2021)]. The two-fold dilution series of peptides ranged from 25 μM to 0.125 μM, while that of the antibiotics ampicillin (Merck) and miconazole (Duchefa Biochemie) from […] to 0.1 μM. The lowest concentration of the antimicrobial agents, which completely eliminated viable bacteria or C. albicans were considered as the minimal bactericidal concentration (MBC) and minimal fungicidal concentration (MFC).
(§2) The minimal bactericidal concentrations (MBCs) were determined after 3 h of treatment of ∼10^7 log phase bacteria with 2-fold serial dilution of peptides from 25 µM to 0.8 µM. Only 25 of the 50 cationic M. truncatula peptides had activity at ≤25 µM (Supplementary Table S1). […] Three peptides were only active against two bacterial strains; NCR649 against L. monocytogenes and A. baumannii, NCR281 against L. monocytogenes and P. aeruginosa and NCR350 against A. baumannii and P. aeruginosa. […] None of the anionic NCR peptides affected the survival of the tested bacterial strains.

[2] = system: Candida albicans W01 strain; test: microbe, parasite or virus in culture; settings: read-out: MFC, minimal fungicidal concentration against C. albicans
Excerpt: as §1

[3] = system: Enterococcus faecalis (ATCC 29212); settings: for Ability to kill E. faecalis: 3 h, ~10^7 log phase bacteria, peptides ≤25 µM
Excerpt: as §1, §2

[4] = system: Escherichia coli (ATCC 8739); settings: for MBC Escherichia coli: ATCC 8739, 3 h
Excerpt: as §1, §2

[5] = system: Listeria monocytogenes (ATCC 19111); settings: for MBC Listeria monocytogenes: ATCC 19111, 3 h
Excerpt: as §1, §2

[6] = system: Pseudomonas aeruginosa (ATCC 27853); settings: for MBC Pseudomonas aeruginosa: ATCC 27853, 3 h
Excerpt: as §1, §2

[7] = system: E. coli, S. enteritidis, P. aeruginosa, L. monocytogenes, S. aureus, E. faecalis, K. pneumoniae and A. baumannii; test: Antimicrobial activity assay, spectrum over the eight tested pathogenic bacteria; settings: 3 h treatment of ~10^7 log phase bacteria, peptides 25 to 0.8 µM; active = MBC ≤25 µM
Excerpt: as §1
We investigated the antimicrobial activity of 78 NCR peptides from M. truncatula and 12 NCRs from other IRLC legumes as well as their shorter derivatives against E. coli, S. enteritidis, P. aeruginosa, L. monocytogenes, S. aureus, E. faecalis, K. pneumoniae and A. baumannii (Supplementary Table S1). In the selection of the M. truncatula peptides, we considered their symbiotic expression levels but also their physicochemical properties. The antimicrobial activity of NCRs has so far been attributed to cationic peptides, with the exception of one anionic peptide. To investigate whether other anionic NCRs are antimicrobial, in addition to the cationic peptides, neutral and anionic NCRs were also included covering a broad range of peptides with different net charges (NC: from 7.8 to −10.2) and isoelectric points (pI: from 10.69 to 2.95). 50 peptides had positive net charge and pI > 7.0, while 28 peptides had negative net charge and pI < 7.0 (Supplementary Table S1A). Of the other legumes, only cationic NCR peptides were studied (Supplementary Table S1B).
as §2

[8] = 3 h, ~10^7 log phase bacteria, peptides ≤25 µM

CSCC[C@H](NC(=O)[C@H](CC(N)=O)NC(=O)[C@H](Cc1ccccc1)NC(=O)[C@@H](NC(=O)[C@H](CC(C)C)NC(=O)[C@H](CCCCN)NC(=O)[C@H](CCCCN)NC(=O)[C@H](CCCCN)NC(=O)[C@H](CCCCN)NC(=O)[C@H](CCCCN)NC(=O)[C@H](CC(C)C)NC(=O)[C@H](CCCCN)NC(=O)[C@H](CCCCN)NC(=O)[C@H](CCCCN)NC(=O)[C@H](Cc1c[nH]cn1)NC(=O)[C@H](CCCCN)NC(=O)[C@H](CCC(N)=O)NC(=O)[C@@H](NC(=O)[C@H](CS)NC(=O)[C@@H](N)Cc1ccc(O)cc1)C(C)C)[C@@H](C)O)C(N)=O [PsNCR349_31-50] (H-YCVQKHKKKLKKKKKLTFNM-NH2)
MBC ([1]; ATCC 17978, 3 h): 6.25 µM (≈ 15.8 µg/mL)
MFC ([2]; W01 strain): 1.6 µM (≈ 4.03 µg/mL)

CC(C)[C@H](NC(=O)CNC(=O)[C@H](CCCNC(=N)N)NC(=O)[C@H](CCCCN)NC(=O)[C@@H]1CCCN1C(=O)[C@@H](N)CCCCN)C(=O)N[C@@H](CC(N)=O)C(=O)N[C@@H](Cc1ccccc1)C(=O)N[C@@H](CCCNC(=N)N)C(=O)N[C@@H](CS)C(=O)N[C@@H](CCCNC(=N)N)C(=O)N[C@@H](CCCCN)C(=O)NCC(=O)N[C@@H](CCCCN)C(N)=O [MsNCR463_17-30] (H-KPKRGVNFRCRKGK-NH2)
MBC ([1]; ATCC 17978, 3 h): 3.125 µM (≈ 5.23 µg/mL)
MFC ([2]; W01 strain): 3.125 µM (≈ 5.23 µg/mL)

CC[C@H](C)[C@H](N)C(=O)N[C@H](C(=O)N[C@H](C(=O)N[C@@H](CC(N)=O)C(=O)N[C@@H](CCCNC(=N)N)C(=O)N[C@@H](CCCNC(=N)N)C(=O)N[C@@H](CS)C(=O)N[C@@H](CCCCN)C(=O)N[C@@H](CO)C(=O)N[C@@H](Cc1c[nH]cn1)C(=O)N[C@@H](CCCCN)C(=O)N[C@@H](CC(=O)O)C(=O)N[C@@H](CS)C(=O)N1CCC[C@H]1C(=O)NCC(=O)N[C@@H](Cc1ccccc1)C(=O)NCC(=O)N[C@@H](CCCCN)C(=O)N[C@@H](CS)C(=O)N[C@@H](CC(C)C)C(=O)N[C@@H](CCCCN)C(=O)N[C@@H](CC(C)C)C(=O)N[C@@H](CCCCN)C(=O)N[C@@H](CS)C(=O)N[C@H](C(=O)N[C@@H](Cc1ccc(O)cc1)C(=O)N[C@H](C(=O)N1CCC[C@H]1C(=O)N[C@@H](CCCCN)C(=O)N[C@@H](CCCNC(=N)N)C(=O)O)[C@@H](C)O)C(C)C)[C@@H](C)O)[C@@H](C)CC [GoNCR308] (H-IITNRRCKSHKDCPGFGKCLKLKCVYTPKR-OH; N-terminus assumed)
Ability to kill E. faecalis [3]: able to kill

CC(C)C[C@H](NC(=O)[C@H](CS)NC(=O)[C@H](CCCCN)NC(=O)CNC(=O)[C@@H](N)Cc1ccccc1)C(=O)N[C@@H](CCCCN)C(=O)N[C@@H](CC(C)C)C(=O)N[C@@H](CCCCN)C(=O)N[C@@H](CS)C(=O)N[C@H](C(N)=O)C(C)C [GoNCR308 (16-25)] (H-FGKCLKLKCV-NH2; N-terminus assumed)
MBC Escherichia coli [4]: 25 µM (≈ 28.4 µg/mL)
MBC Listeria monocytogenes [5]: 12.5 µM (≈ 14.2 µg/mL)
MBC Pseudomonas aeruginosa [6]: 12.5 µM (≈ 14.2 µg/mL)

CC[C@H](C)[C@H](NC(=O)[C@H](Cc1ccc(O)cc1)NC(=O)[C@H](C)N)C(=O)N[C@@H](CCC(=O)O)C(=O)N[C@@H](CS)C(=O)N[C@@H](CCC(=O)O)C(=O)N[C@H](C(=O)N[C@@H](CC(=O)O)C(=O)N[C@@H](CC(=O)O)C(=O)N[C@@H](CC(=O)O)C(=O)N[C@@H](CS)C(=O)N1CCC[C@H]1C(=O)N[C@@H](CCCCN)C(=O)N1CCC[C@H]1C(=O)N[C@@H](CCSC)C(=O)N[C@@H](CCCCN)C(=O)N[C@@H](CC(N)=O)C(=O)N[C@@H](CO)C(=O)N[C@@H](Cc1c[nH]cn1)C(=O)N1CCC[C@H]1C(=O)N[C@@H](CC(=O)O)C(=O)N[C@H](C(=O)N[C@@H](Cc1ccc(O)cc1)C(=O)N[C@@H](Cc1ccc(O)cc1)C(=O)N[C@@H](CCCCN)C(=O)N[C@@H](CS)C(=O)N[C@H](C(=O)N[C@@H](CCCCN)C(=O)N[C@@H](Cc1c[nH]cn1)C(=O)N[C@@H](CCCNC(=N)N)C(=O)N[C@@H](CS)C(=O)N[C@@H](CCC(N)=O)C(=O)N[C@@H](Cc1c[nH]c2ccccc12)C(=O)N[C@@H](C)C(=O)N[C@@H](Cc1c[nH]c2ccccc12)C(=O)N[C@@H](CCCCN)C(=O)O)C(C)C)[C@@H](C)O)C(C)C [NCR147] (H-AYIECEVDDDCPKPMKNSHPDTYYKCVKHRCQWAWK-OH; N-terminus assumed)
Activity against A. baumannii [1, 8]: showed activity
MBC Acinetobacter baumannii ([1]; ATCC 17978, 3 h): 3.125 µM (≈ 13.7 µg/mL)
Activity against E. coli [4, 8]: showed activity
MBC Escherichia coli [4]: 25 µM (≈ 110 µg/mL)
Activity against L. monocytogenes [5, 8]: showed activity
MBC Listeria monocytogenes [5]: 12.5 µM (≈ 54.9 µg/mL)
Activity against P. aeruginosa [6, 8]: showed activity
MBC Pseudomonas aeruginosa [6]: 12.5 µM (≈ 54.9 µg/mL)

CC[C@H](C)[C@H](NC(=O)[C@@H]1CCCN1C(=O)[C@H](CC(C)C)NC(=O)[C@H](CS)NC(=O)[C@H](CCCCN)NC(=O)[C@H](CS)NC(=O)[C@H](CCSC)NC(=O)[C@H](CCCNC(=N)N)NC(=O)[C@H](CCCNC(=N)N)NC(=O)[C@@H](NC(=O)[C@H](CS)NC(=O)[C@H](CCCNC(=N)N)NC(=O)[C@@H]1CCCN1C(=O)[C@H](CCC(=O)O)NC(=O)[C@H](CCSC)NC(=O)CNC(=O)[C@@H]1CCCN1C(=O)[C@@H]1CCCN1C(=O)[C@H](CS)NC(=O)[C@H](CCSC)NC(=O)[C@H](Cc1c[nH]cn1)NC(=O)[C@@H]1CCCN1C(=O)[C@@H]1CCCN1C(=O)[C@H](CS)NC(=O)[C@H](Cc1c[nH]cn1)NC(=O)[C@H](CO)NC(=O)[C@H](CC(=O)O)NC(=O)[C@@H](NC(=O)[C@@H](NC(=O)[C@H](CS)NC(=O)[C@H](CC(C)C)NC(=O)[C@@H](N)Cc1ccc(O)cc1)C(C)C)[C@@H](C)O)C(C)C)C(=O)NCC(=O)N[C@@H](Cc1c[nH]c2ccccc12)C(=O)N[C@@H](CCCNC(=N)N)C(=O)N[C@@H](CCCCN)C(=O)N[C@@H](Cc1ccc(O)cc1)C(=O)N[C@@H](Cc1ccccc1)C(=O)N[C@H](C(=O)N1CCC[C@H]1C(=O)O)C(C)C [NCR336] (H-YLCVTDSHCPPHMCPPGMEPRCVRRMCKCLPIGWRKYFVP-OH; N-terminus assumed)
Ability to kill E. faecalis [3]: able to kill
Antibacterial spectrum over the eight tested bacterial strains [7]: capable of killing all tested bacteria; also recorded: active against all the eight tested pathogens

CC[C@H](C)[C@H](NC(=O)CNC(=O)[C@H](CCC(N)=O)NC(=O)[C@@H](NC(=O)[C@H](CS)NC(=O)[C@H](CCCNC(=N)N)NC(=O)[C@H](CC(C)C)NC(=O)[C@H](CCCNC(=N)N)NC(=O)[C@H](CCCNC(=N)N)NC(=O)[C@H](CC(N)=O)NC(=O)[C@@H](NC(=O)[C@H](Cc1ccc(O)cc1)NC(=O)[C@H](CCSC)NC(=O)[C@@H]1CCCN1C(=O)[C@H](Cc1ccc(O)cc1)NC(=O)[C@H](CC(C)C)NC(=O)[C@@H](NC(=O)[C@H](CC(N)=O)NC(=O)[C@H](CS)NC(=O)[C@H](CC(=O)O)NC(=O)[C@@H](NC(=O)[C@H](CC(=O)O)NC(=O)[C@H](CO)NC(=O)[C@@H](NC(=O)[C@H](CS)NC(=O)[C@H](CCC(=O)O)NC(=O)[C@@H](N)CO)[C@@H](C)CC)[C@@H](C)O)C(C)C)[C@@H](C)CC)[C@@H](C)CC)C(=O)N[C@@H](CS)C(=O)N[C@@H](Cc1c[nH]cn1)C(=O)N[C@H](C(=O)N[C@H](C(=O)N[C@H](C(=O)N[C@@H](C)C(=O)N[C@@H](CCCNC(=N)N)C(=O)N[C@@H](CCCNC(=N)N)C(=O)N[C@@H](CCCNC(=N)N)C(=O)O)[C@@H](C)O)[C@@H](C)O)[C@@H](C)O [NCR299] (H-SECISDTDCNVLYPMYINRRLRCIQGICHTTTARRR-OH; N-terminus assumed)
Ability to kill E. faecalis [3]: able to kill
MBC Enterococcus faecalis ([3]; ATCC 29212, 3 h): 12.5 µM (≈ 53.2 µg/mL)
MBC Escherichia coli [4]: 12.5 µM (≈ 53.2 µg/mL)
MBC Listeria monocytogenes [5]: 12.5 µM (≈ 53.2 µg/mL)
MBC Pseudomonas aeruginosa [6]: 3.125 µM (≈ 13.3 µg/mL)
Antibacterial spectrum over the eight tested bacterial strains [7]: effective against five or four strains

Clc1ccc(COC(Cn2ccnc2)c2ccc(Cl)cc2Cl)c(Cl)c1 (stereo not shown) [Miconazole, reference compound]
MFC ([2]; Candida albicans, W01STRAIN, C. albicans W01, two-fold dilution series, lowest concentration completely eliminating viable C. albicans): 50600 µM (≈ 21000 µg/mL)
